Source: patent US12577232B2, “N-heterocycle substituted tryptamine derivatives and methods of using” (ENVERIC B[…] INC., priority 2024, dated 2026)

Experiments:
5-HT2A receptor [1] = target: T1, 5-HT2A receptor (Homo sapiens, UniProt P28223); assay: Functional cell-based 5-HT2A assay, agonism mode (CHO-K1/5-HT2A, Fluo-8 calcium flux); settings: CHO-K1/5-HT2A cells
T1 construct: purchased PerkinElmer ES-313-M400UA
Experimental: Herein, functional, cell-based assays were conducted to determine (1) agonist potency and efficacy of drugs at the 5-HT2A receptor (agonist mode), and (2) antagonist potency at the 5-HT2A receptor (antagonist mode).
All cells were grown and maintained as a monolayer in Ham's F12 nutrient mix supplemented with 10% fetal bovine serum (FBS) and 400 μg/mL geneticin (G418) all from ThermoFisher Scientific and used according to the manufacturer's instructions. Cells were cultured and incubated at 37° C. in a humidified oxygen atmosphere with 5% CO2. To evaluate the activation of 5-HT2A signal transduction, cells were first seeded in tissue culture-treated, black-walled, clear-bottom 96-well plates (Thermo Scientific) at a density of 40,000 cells/well in 100 pl Ham's F12 nutrient mix supplemented with 2% FBS. Cells were cultured for 24 h in a humidified incubator at 37° C. and 5% CO2. Cells were then loaded with Fluo-8 calcium indicator dye for 1 h at 37° C. and an additional 30 min at room temperature as per the manufacturer's protocol. […] Kinetic increases in intracellular calcium levels were measured immediately after addition of test compounds every 6.4 s for a total of 3 min using the FlexStation 3 multimode microplate reader and SoftMax Pro 7.1 analysis software (Molecular Devices, moleculardevices.com). […] EC50 values were calculated from the normalized data from GraphPad PRISM software.

5-HT2A receptor [2] = target: T1, 5-HT2A receptor; assay: Functional cell-based 5-HT2A assay, antagonism mode (CHO-K1/5-HT2A, 100 nM serotonin, calcium flux); settings: CHO-K1/5-HT2A cells, with 100 nM serotonin
Source text: A variety of 5-HT2A receptor engagement modes have been correlated with positive outcomes in the treatment of neurological disorders. While agonism is associated with a host of favourable effects, antagonizing the 5-HT2A receptor is also an attractive pharmacological approach. For example, antagonism is known to alleviate both dyskinesisa and psychosis in Parkinson's Disorder and holds promise for other psychiatric diseases (Mestre et al., 2013, Expert Opin. Investig. Drugs 22:411-421). Similarly positive outcomes are noted for inverse agonists (Cummings et al., 2014, Lancet, 383:533-540; Roberts, 2006, Curr. Opin. Invest. Drugs 7:653-660). […]
Stimulation of 5-HT2A coupled to the Gq family proteins leads to activation of the phospholipase C (PLC) pathway, ultimately resulting in the accumulation of cytosolic calcium (Cussac et al., Europ. J. Pharmacol., 2008, 594 (1-3), 32-38). […] Kinetic increases in intracellular calcium levels were measured immediately after addition of ligands every 6.4 s for a total of 3 min using the FlexStation 3 multimode microplate reader and SoftMax Pro 7.1 analysis software (Molecular Devices, moleculardevices.com). […] IC50 values were calculated from the normalized data from GraphPad PRISM software. […]

[3] = after intravenous (and oral) psilocybin administration (Raithatha et al., 2023); cited from earlier work
[4] = test system: stressed C57BL/6-Elite mice; assay: Mouse marble burying (MB) assay to assess anxiolytic potential; format: in vivo; settings: i.p., psilocin 3 mg/kg, compound (XV) 10 mg/kg; vs Vehicle+Stress
Experimental: Marble burying behavior is used to measure the level of anxiety in a rodent when it encounters unfamiliar objects (Deacon, 2006, Nature Protocols 1:122-124). This assay is routinely applied to the study of chronically stressed mice, where drug candidates are evaluated for an ability to diminish stress-induced, anxiety-like behaviours (e.g., Wang et al., ACS Chem. Neurosci. 14:977-987). Positive results in this assay may be interpreted as an indication of therapeutic (anxiolytic) potential in the treatment of various psychiatric disorders. Herein, we applied the marble burying model to investigate whether selected drugs could alleviate anxiety behaviour in stressed mice.
All animal protocols were approved by the University of Calgary Animal Care and Use Committee. C57BL/6-Elite mixed sex mice were obtained from Charles River Laboratories (Toronto, Canada) at 8-9 weeks old. […]
On the testing days, 10 glass marbles (approx. 15 mm in diameter) were evenly spaced on 5 cm of wood-chip bedding (lightly tamped down to make a flat and even surface). […] The number of marbles buried to ⅔rds their depth was measured. Fully buried marbles were counted as 1 and partially (at least ⅔rds) buried marbles were counted as 0.5. […]

[5] = test system: stressed C57BL/6-Elite mice; assay: Mouse sucrose preference (SP) assay to assess antidepressant potential; format: in vivo; settings: i.p., psilocin 3 mg/kg, compound (XV) 10 mg/kg; one day after administration
Experimental: Reduced intake of pleasurable substances, e.g., of sucrose water, is a validated behavioral measure of anhedonic/depressive-like state in rodents (Moreau et al., 1992, Eur. Neurpsychopharmocol. 2:43-49; Liu et al., 2018, Nature Protocols 13:1686-1698). […] In the SP assay, cohorts of mice are pre-stressed, leading to a depressed state. The ability of drugs to rescue this state are evaluated.
All animal protocols were approved by the University of Calgary Animal Care and Use Committee. C57BL/6-Elite mixed sex mice were obtained from Charles River Laboratories (Toronto, Canada) at 8-9 weeks old. Mice were maintained on a 12:12 h light/dark schedule (lights on at 07:00 hours) with ad libitum access to food and water and group-housed until 2 days prior to the start of the mild chronic stress paradigm, then mice were single-housed. […]
Mice were introduced to 1% sucrose solution in their drinking water for 24 hrs for 2 days prior to initial sucrose preference testing to reduce impact of novelty. […] The consumption in water, sucrose solution, and total intake of liquids was measured by weighing each bottle before and after the 24-hr experiment. The preference for sucrose was calculated as a percentage of the consumed sucrose solution from the total intake of both water and sucrose solutions. […]

T1 sequence (P28223 whole entry): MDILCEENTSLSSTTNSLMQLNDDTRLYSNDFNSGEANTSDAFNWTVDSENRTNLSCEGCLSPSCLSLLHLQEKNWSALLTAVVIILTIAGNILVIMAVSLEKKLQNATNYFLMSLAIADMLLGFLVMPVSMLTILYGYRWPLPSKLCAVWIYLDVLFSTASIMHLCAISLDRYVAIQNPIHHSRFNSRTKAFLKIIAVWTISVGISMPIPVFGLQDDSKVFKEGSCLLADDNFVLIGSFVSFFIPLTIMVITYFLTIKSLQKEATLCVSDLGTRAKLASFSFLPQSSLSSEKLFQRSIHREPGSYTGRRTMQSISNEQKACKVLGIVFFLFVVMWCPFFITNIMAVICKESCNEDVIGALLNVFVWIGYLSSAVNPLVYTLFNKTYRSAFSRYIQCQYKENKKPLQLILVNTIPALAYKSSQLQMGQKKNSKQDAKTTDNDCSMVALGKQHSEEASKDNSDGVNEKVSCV

SMILES: CN(C)CCc1c[nH]c2cccc(O)c12 [psilocin, reference compound]
- engagement at the 5-HT2A receptor, agonist mode (5-HT2A receptor [1]): agonism
- engagement at the 5-HT2A receptor, antagonist mode (5-HT2A receptor [2]): antagonism
- persistence in plasma [3]: > 8 h
- anxiety-linked (marble burying) behavior in stressed mice [4]: rescued
- sucrose preference behaviour in stressed mice vs no drug control [5]: significantly elevated
